What was measured:
HCV helicase = molecular target: T1, HCV helicase (Hepatitis C virus genotype 1b, UniProt Q9WMX2); test: MBHA with RNA substrate (HCV helicase-catalyzed RNA unwinding); assay type: biochemical; conditions: in words
T1 construct: truncated C-terminally His-tagged NS3 proteins lacking the N-terminal protease, called NS3h; His-tag (C); made in house
From the text: All oligonucleotides were purchased from Integrated DNA Technologies (IDT, Coralville, Iowa). The partially duplex DNA substrates used in MBHAs consisted of a helicase substrate forming 25 base pairs and consists of a 45-mer bottom strand 5′-GCTCCCCGTTCATCGATTGGGGAGC(T)20-3′ (SEQ ID NO:1) and the 25-mer HCV top strand 5′-Cy5-GCTCCCCAATCGATGAACGGGGAGC-IBRQ-3′ (SEQ ID NO:2). The 19 base pair RNA substrate used in MBHAs was composed of a 39 nucleotide long bottom strand 5′-AGU GCC UUG ACG AUA CAG C(U)20-3′ (SEQ ID NO:3) and the 24 nucleotide long top strand 5′-Tye^665-AGUGCGCUGUAUCGUCAAGGCACU-IBRQSp-3′ (SEQ ID NO:4). Underlined areas denote hairpin-forming regions. DNA and RNA substrates were annealed and purified as described previously (Belon & Frick (2008) BioTechniques 45:433-40, 442).
All molecular beacon-based helicase assays (MBHAs) were performed according to known methods (Belon & Frick (2008) supra; Belon & Frick (2009) supra). […] In each flat, black 384-well plate, 56 compounds were tested, in triplicate, along with three negative controls (DMSO only), three positive controls (500 nM dT20), and two wells with no enzyme. Fluorescence was read before ATP (F0) addition and 30 minutes after ATP was added to 1 mM (F30) using a Tecan Infinite M200 fluorescence microplate reader with excitation and emission wavelengths set to 643 and 670 nm, respectively. Percent inhibition was calculated with equation 1, and compound interference in the MBHA was calculated with equation 2.
To monitor helicase reaction kinetics and to calculate IC50 values, MBHAs were performed in 60 μL in white ½ area 96-well plates and measured in a Thermo Varioscan Multimode reader (Thermo Scientific) using the 643 nm excitation wavelength and 667 emission wavelengths. […] Initial reaction velocities were calculated by fitting first-order decay equation to data obtained after ATP addition and calculating an initial velocity form the resulting amplitude and rate constant.

[1] = Plasma protein binding (RED), human; assay type: in vitro ADME
Experimental: TEFLON Base Plate wells were rinsed with 20% ethanol for 10 minutes. Ethanol was then removed and wells were rinsed with ultrapure water and allowed to dry. RED (rapid equilibrium dialysis) inserts from Thermo Scientific (Pierce) were placed (open end up) into the wells of the base plate. All liquid was dispensed and transfer steps were performed with the FREEDOM EVO automated liquid handler (Tecan US). The sample chambers (red ring) contained 300 μl of a mixture of plasma and compound, and the buffer chambers received 500 μl of dialysis buffer (1×PBS, pH7.4). Duplicate inserts were made for each concentration tested. The base plate was covered with sealing tape and incubated at 37° C. on an orbital shaker at 350 rpm for 4 hours. After the incubation time, equal volumes from both chambers were removed and transferred to a 96 well plate containing either plasma or buffer. […] The amount of compound in the supernatant was determined by LC/MS/MS (Applied Biosystems, Sciex API4000 Q-Trap). The percent of free and bound compounds were calculated with the following formula: % of bound parent compound=[(amount of compound in donor-receiver/amount of compound in donor)×100]. Results reported are the mean of each reaction duplicate, normalized to the internal standard, and expressed as a percent compound bound after the incubation time. […]

in vitro = assay type: cell-based; conditions: human
Experimental: Immortalized human hepatocytes, Fa2N-4 cells (XenoTech) were seeded at ˜50,000 cells/well, and incubated with a range of concentrations (0.01-50 μM) of compound 17, in duplicate, for 24 hours at 37° C., 5% CO2. Cell viability was determined by cellular ATP levels using the Luminescence ATP Detection Assay System (ATPLITE 1 step, Perkin Elmer) and the Infinite M200 plate reader (Tecan). Camptothecin (highly toxic) and Terfenadine (highly non-toxic) were used as standards. Final DMSO concentration was 0.5%.

[2] = tested on: HCV replication complexes in Huh-7.5/HCV Con1sg Rluc cells; test: Indirect immunofluorescence staining of NS5A (replication complexes); assay type: cell-based, hepatitis C virus; conditions: 10 μM, 72 hours
Experimental: For indirect immunofluorescence staining, Huh-7.5/HCV Con1sg Rluc cells were plated on cover slips in a 24-well plate. The next day, compounds were added at a 10 μM concentration and after 48 hours from the first addition, the medium was supplemented with 10 μM compound. Interferon alpha-2b was used as positive control at 100 U/well and added at the same time points as compounds. After 72 hours, indirect immunofluorescence staining was performed according to standard methods. Cells were fixed in 1% PFA for 40 minutes, washed thrice with 5 mL PBS, permeabilized with 0.05% saponin (Sigma) and blocked with 3% BSA in PBS for 1 hour at 37° C. Subsequently, cells were washed with 2 mL PBS three times and incubated with mouse monoclonal antibody 9E10 against NS5A diluted in blocking buffer for 1 hour at room temperature. Cells were washed three times with 2 ml PBS and once with 3% BSA. The cells were then incubated with ALEXA 546 conjugated-goat F(ab′)2 anti-mouse immunoglobulin G (IgG) (Invitrogen) for 1 hour at room temperature. Cells were washed twice with PBS and then mounted on glass slides using PROLONG Gold anti-fade reagent (Invitrogen). Appropriate controls were performed to rule out nonspecific binding of primary and secondary antibodies.
Microscopy was performed with a Nikon Ti-E inverted fluorescence microscope using a 20× and 40×/NA 1.4 objective. […]

T1 sequence (Q9WMX2 1192-1657): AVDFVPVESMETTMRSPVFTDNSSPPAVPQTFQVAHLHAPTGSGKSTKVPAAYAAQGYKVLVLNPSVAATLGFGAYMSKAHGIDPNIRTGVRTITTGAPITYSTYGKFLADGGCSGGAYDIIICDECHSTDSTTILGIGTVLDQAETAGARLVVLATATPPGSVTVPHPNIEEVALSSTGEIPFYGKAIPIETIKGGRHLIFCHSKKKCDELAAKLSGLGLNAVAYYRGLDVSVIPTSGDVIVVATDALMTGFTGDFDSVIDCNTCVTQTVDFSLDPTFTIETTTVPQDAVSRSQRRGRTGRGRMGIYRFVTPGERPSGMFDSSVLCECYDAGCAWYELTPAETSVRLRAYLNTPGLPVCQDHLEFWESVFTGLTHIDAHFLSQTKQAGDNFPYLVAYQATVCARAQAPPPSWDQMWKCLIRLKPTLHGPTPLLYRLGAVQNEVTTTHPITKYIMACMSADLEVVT

In the case of `Cc1ccc2nc(-c3ccc4nc(-c5ccc(NC(=O)c6cccc(Cl)c6)cc5)sc4c3)sc2c1S(=O)(=O)O` [Compound 17, 2′-(4-(3-chlorobenzamido)phenyl)-6-methyl-[2,6′-bibenzo[d]thiazole]-7-sulfonic acid], the “effect on HCV helicase catalyzed RNA unwinding” value (HCV helicase) is reported as “inhibited HCV helicase-catalyzed RNA-unwinding”, the fraction unbound at 4 h, 1 μM ([1]; pH 7.4, 1 μM, read-out: Plasma Protein Binding (% Bound) Human (converted)) is reported as 0.02 and the fraction unbound at 4 h, 10 μM ([1]; pH 7.4, 10 μM, read-out: Plasma Protein Binding (% Bound) Human) is reported as 0.01. For the same compound, the CC50 at 24 h (in vitro) was > 50 µM.
With `Cc1ccc2nc(-c3ccc4nc(-c5ccc(NC(=O)c6cc(C(F)(F)F)cc(C(F)(F)F)c6)cc5)sc4c3)sc2c1S(=O)(=O)O` [Compound 24, 2′-(4-(3,5-bis(trifluoromethyl)benzamido)phenyl)-6-methyl-[2,6′-bibenzo[d]thiazole]-7-sulfonic acid] the “number of HCV replication complexes (NS5A staining)” value [2] was “lower number of replication complexes”.
